{
  "source": "paper PMC7156458",
  "about": "“Synthetic biology based construction of biological activity-related library of fungal decalin-containing diterpenoid pyrones” (Nature Communications, 2020)",
  "key": {"[1]": {"tested_on": "l(2)mbn cells", "experiment": "cytotoxicity in Drosophila l(2)mbn cells", "type": "cell-based", "settings": "for Luminescence Raw1: replicate 1; for Luminescence Raw2: replicate 2; for IC50: Drosophila melanogaster, cytotoxicity", "procedure": "(§1) We screened the DDPs on the Drosophila assay system for cytotoxicity, inhibitory activity of innate immune signalling and insecticidal activity. The cytotoxicity of the DDPs was evaluated using two cell lines, embryonic macrophage-derived DL1 cells[58]–[60] and larval blood cell-derived l(2)mbn cells, and their IC50 values are listed in Supplementary Table 23."}, "[2]": {"experiment": "cytotoxicity in Drosophila l(2)mbn cells", "type": "cell-based", "settings": "Drosophila, l(2)mbn cells (larval blood cell-derived)", "procedure": "as §1"}, "[3]": {"tested_on": "MCF-7 cells", "experiment": "cell cytotoxic effects against MCF-7 cells (72 h), A490", "type": "cell-based, human"}, "[4]": {"tested_on": "human immunodeficiency virus-1 (HIV-1)", "experiment": "anti-HIV MAGI assay", "type": "cell-based", "settings": "Human immunodeficiency virus 1, MAGI, anti-HIV; average of numeric determinations; read-out: Avg. EC50", "from_the_text": "We examined the inhibitory activities of DDPs against various species of bacteria (both gram-negative and gram-positive bacteria), fungi and viruses. […] In contrast, preliminary screening of the DDPs for anti-viral agents with hepatitis B virus (HBV), measles virus (MV), Epstein-Barr virus (EBV), herpes simplex virus (HSV) and human immunodeficiency virus-1 (HIV-1) indicated their selective inhibition of HIV."}, "[5]": {"tested_on": "MAGI cells", "experiment": "cytotoxicity in the anti-HIV assay (CC50)", "type": "cell-based", "settings": "single determinations"}, "[6]": {"tested_on": "DL1 cells", "experiment": "cytotoxicity in Drosophila DL1 cells", "type": "cell-based", "settings": "DL1 cells; for IC50: Drosophila melanogaster, cytotoxicity", "procedure": "as §1"}, "[7]": {"experiment": "cytotoxicity in Drosophila DL1 cells", "type": "cell-based", "settings": "Drosophila, DL1 cells (embryonic macrophage-derived), DL1 cells", "procedure": "as §1"}, "[8]": {"settings": "average of two replicates, read-out: IC50 Average"}, "[9]": {"settings": "replicate 1, read-out: IC50 (1)"}, "[10]": {"settings": "replicate 2, read-out: IC50 (2)"}, "[11]": {"settings": "replicate 1, relative to DMSO 1%, read-out: % viability, viability 1"}, "[12]": {"settings": "replicate 2, relative to DMSO 1%, read-out: % viability, viability 2"}},
  "note": "Where two headings read alike, the source gives them in different places.",
  "data": [
    {"smiles": "C=C1CC[C@@H]2[C@](C)(CC[C@H]3O[C@H](C=C(C)C)C[C@@]23C)[C@@H]1Cc1c(OC)oc(CO)c(C)c1=O", "note": "[Compound 20]", "values": [
      {"measurement": "Luminescence Raw1", "setting": "[1]; 0.04 µM", "value": 6010744},
      {"measurement": "Luminescence Raw2", "setting": "[1]; 0.04 µM", "value": 6416731},
      {"measurement": "Luminescence Raw1", "setting": "[1]; 0.2 µM", "value": 6637959},
      {"measurement": "Luminescence Raw2", "setting": "[1]; 0.2 µM", "value": 7047592},
      {"measurement": "Luminescence Raw1", "setting": "[1]; 1 µM", "value": 4464964},
      {"measurement": "Luminescence Raw2", "setting": "[1]; 1 µM", "value": 5080853},
      {"measurement": "Luminescence Raw1", "setting": "[1]; 4 µM", "value": 97218},
      {"measurement": "Luminescence Raw2", "setting": "[1]; 4 µM", "value": 136159},
      {"measurement": "Luminescence Raw1", "setting": "[1]; 10 µM", "value": 118130},
      {"measurement": "Luminescence Raw2", "setting": "[1]; 10 µM", "value": 110559},
      {"measurement": "Luminescence Raw1", "setting": "[1]; 20 µM", "value": 87844},
      {"measurement": "Luminescence Raw2", "setting": "[1]; 20 µM", "value": 128947},
      {"measurement": "IC50", "setting": "[1]; [8]", "value": 1.45, "unit": "µM"},
      {"measurement": "IC50", "setting": "[1]; average±SEM, read-out: IC50", "value": "1.45 ± 0.13", "unit": "µM"},
      {"measurement": "IC50", "setting": "[1]; [9]", "value": 1.32, "unit": "µM"},
      {"measurement": "IC50", "setting": "[1]; [10]", "value": 1.58, "unit": "µM"},
      {"measurement": "viability at 0.04 µM", "setting": "[2]; [11]", "value": 95.7, "unit": "%"},
      {"measurement": "viability at 0.04 µM", "setting": "[2]; [12]", "value": 102, "unit": "%"},
      {"measurement": "viability at 0.2 µM", "setting": "[2]; [11]", "value": 106, "unit": "%"},
      {"measurement": "viability at 0.2 µM", "setting": "[2]; [12]", "value": 112, "unit": "%"},
      {"measurement": "viability at 1 µM", "setting": "[2]; [11]", "value": 71.1, "unit": "%"},
      {"measurement": "viability at 1 µM", "setting": "[2]; [12]", "value": 80.9, "unit": "%"},
      {"measurement": "viability at 4 µM", "setting": "[2]; [11]", "value": 1.55, "unit": "%"},
      {"measurement": "viability at 4 µM", "setting": "[2]; [12]", "value": 2.17, "unit": "%"},
      {"measurement": "viability at 10 µM", "setting": "[2]; [11]", "value": 1.88, "unit": "%"},
      {"measurement": "viability at 10 µM", "setting": "[2]; [12]", "value": 1.76, "unit": "%"},
      {"measurement": "viability at 20 µM", "setting": "[2]; [11]", "value": 1.4, "unit": "%"},
      {"measurement": "viability at 20 µM", "setting": "[2]; [12]", "value": 2.05, "unit": "%"},
      {"measurement": "cytotoxicity against the bulk of MCF-7 cells", "setting": "[3]", "value": "dose-dependent cytotoxicity"},
      {"measurement": "viability at 0.1 µM", "setting": "[3]; Homo sapiens, MCF7, 72 h, MCF-7, 72 h, 0.1 µM (DMSO 0.002%), read-out: A490 (control =1) ave", "value": 90, "unit": "%"},
      {"measurement": "viability at 1 µM", "setting": "[3]; Homo sapiens, MCF7, 72 h, MCF-7, 72 h, 1 µM (DMSO 0.02%), read-out: A490 (control =1) ave", "value": 45.3, "unit": "%"},
      {"measurement": "viability at 10 µM", "setting": "[3]; Homo sapiens, MCF7, 72 h, MCF-7, 72 h, 10 µM (DMSO 0.2%), read-out: A490 (control =1) ave", "value": 29.4, "unit": "%"},
      {"measurement": "A490 ave", "setting": "[3]; MCF-7, 72 h, 0.1 µM (DMSO 0.002%), control 1.064", "value": 0.958},
      {"measurement": "A490 ave", "setting": "[3]; MCF-7, 72 h, 1 µM (DMSO 0.02%), control 1.104", "value": 0.500},
      {"measurement": "A490 ave", "setting": "[3]; MCF-7, 72 h, 10 µM (DMSO 0.2%), control 1.049", "value": 0.308},
      {"measurement": "EC50", "setting": "[4]", "value": 4.07, "unit": "µM"},
      {"measurement": "Cytotoxicity", "setting": "[5]", "value": ">10", "unit": "µM"},
      {"measurement": "Luminescence Raw1", "setting": "[6]; 0.04 µM, replicate 1", "value": 2619350},
      {"measurement": "Luminescence Raw2", "setting": "[6]; 0.04 µM, replicate 2", "value": 2864984},
      {"measurement": "Luminescence Raw1", "setting": "[6]; 0.2 µM, replicate 1", "value": 2345231},
      {"measurement": "Luminescence Raw2", "setting": "[6]; 0.2 µM, replicate 2", "value": 2278506},
      {"measurement": "Luminescence Raw1", "setting": "[6]; 1 µM, replicate 1", "value": 282109},
      {"measurement": "Luminescence Raw2", "setting": "[6]; 1 µM, replicate 2", "value": 273095},
      {"measurement": "Luminescence Raw1", "setting": "[6]; 4 µM, replicate 1", "value": 279585},
      {"measurement": "Luminescence Raw2", "setting": "[6]; 4 µM, replicate 2", "value": 290402},
      {"measurement": "Luminescence Raw1", "setting": "[6]; 10 µM, replicate 1", "value": 280667},
      {"measurement": "Luminescence Raw2", "setting": "[6]; 10 µM, replicate 2", "value": 263720},
      {"measurement": "Luminescence Raw1", "setting": "[6]; 20 µM, replicate 1", "value": 281027},
      {"measurement": "Luminescence Raw2", "setting": "[6]; 20 µM, replicate 2", "value": 336916},
      {"measurement": "IC50", "setting": "[6]; [8]", "value": 0.269, "unit": "µM"},
      {"measurement": "IC50", "setting": "[6]; average±SEM, read-out: IC50", "value": "0.27 ± 0.03", "unit": "µM"},
      {"measurement": "IC50", "setting": "[6]; [9]", "value": 0.299, "unit": "µM"},
      {"measurement": "IC50", "setting": "[6]; [10]", "value": 0.238, "unit": "µM"},
      {"measurement": "viability at 0.04 µM", "setting": "[7]; [11]", "value": 191, "unit": "%"},
      {"measurement": "viability at 0.04 µM", "setting": "[7]; [12]", "value": 209, "unit": "%"},
      {"measurement": "viability at 0.2 µM", "setting": "[7]; [11]", "value": 171, "unit": "%"},
      {"measurement": "viability at 0.2 µM", "setting": "[7]; [12]", "value": 166, "unit": "%"},
      {"measurement": "viability at 1 µM", "setting": "[7]; [11]", "value": 20.6, "unit": "%"},
      {"measurement": "viability at 1 µM", "setting": "[7]; [12]", "value": 19.9, "unit": "%"},
      {"measurement": "viability at 4 µM", "setting": "[7]; [11]", "value": 20.4, "unit": "%"},
      {"measurement": "viability at 4 µM", "setting": "[7]; [12]", "value": 21.2, "unit": "%"},
      {"measurement": "viability at 10 µM", "setting": "[7]; [11]", "value": 20.5, "unit": "%"},
      {"measurement": "viability at 10 µM", "setting": "[7]; [12]", "value": 19.2, "unit": "%"},
      {"measurement": "viability at 20 µM", "setting": "[7]; [11]", "value": 20.5, "unit": "%"},
      {"measurement": "viability at 20 µM", "setting": "[7]; [12]", "value": 24.6, "unit": "%"}
    ]}
  ]
}
